Bounds are passed on as bounds.

What all share (format): in vivo
In experiment [1] the test system is Tobacco Budworm [Heliothis virescens (Fabricius)] eggs. Put plainly: Tobacco budworm egg test. The following applies: 2-day old eggs, percent in solution. Put shortly: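 Mortality of dipped eggs served as read-out, recorded after untreated controls hatched and began feeding. Treatments used acetone solutions from 0.1% downward, with eggs incubated at 78° F; LC50 is expressed as percent of compound in the solution.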

In experiment [2] the test system is Cabbage Looper [Trichoplusia ni (Hubner)]. Put plainly: Cabbage looper insecticidal test. The following applies: second-instar larvae, percent in solution; 3-5 days. Put shortly:
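Steps: dilute compound in 50-50 acetone-water from 0.1% downward; immerse cotyledon pieces 2-3 s and dry; place in humid petri dishes with five second-instar larvae; record mortality at 3-5 days. Dosage-mortality curves yield LC50 as percent in solution.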

Experiment [3] concerns Housefly [Musca domestica]. Put plainly: Housefly insecticidal test. The following applies: μg per 25 female flies; mortality after 48 hours. Put shortly: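 LC50, as μg compound per 25 female flies, comes from dosage-mortality curves with doses from 100 μg downward. Residues were made by evaporating acetone plus 0.01% peanut oil in dishes, onto which 1-2-day-old females were caged; deaths were counted after 48 hours.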

Regarding `Cc1ccc(Cl)cc1N=C(OCc1cccc(Oc2ccccc2)c1)C(C)C` [Compound 263], the “LC50, TBW, E (TBW-E)” value in experiment [1] is on record as greater than 0.1%. Further, the “LC50, CL” value in experiment [2] worked out at 0.05%. The “LC50, HF” value in experiment [3] is greater than 100 µg.
`COc1ccc(Cl)cc1N=C(OCc1cccc(Oc2ccccc2)c1)C(C)C` [Compound 264]: the “LC50, TBW, E (TBW-E)” value in experiment [1] was greater than 0.1%. Further, in experiment [2], the “LC50, CL” value is reported as 0.03%. The “LC50, HF” value in experiment [3] is greater than 100 µg.
For `CC(C)C(=Nc1ccc(F)cc1)OCc1cccc(Oc2ccc(F)c(F)c2)c1` [Compound 265], in that order: 0.07%, 0.00025% and 10 µg.
Consider `CC(C)C(=Nc1cccc(SC(F)(F)F)c1)OCc1cccc(Oc2ccc(F)cc2)c1` [Compound 272], for which, in experiment [1], the “LC50, TBW, E (TBW-E)” value is listed as greater than 0.1%. In addition, in experiment [2], the “LC50, CL” value came to 0.0024%. Further, in experiment [3], the “LC50, HF” value was greater than 100 µg.
Turning to `CC(C)C(=Nc1ccc2c(c1)OCO2)OCc1cc(Oc2ccc(F)cc2)ccc1Cl` [Compound 274], the “LC50, TBW, E (TBW-E)” value in experiment [1] was greater than 0.1%. In addition, in experiment [2], the “LC50, CL” value was determined as 0.1%. Besides, the “LC50, HF” value in experiment [3] was greater than 100 µg.
The like results for `CC(C)C(=Nc1ccc(F)c(F)c1)OCc1cccc(Oc2ccc(Br)cc2)c1` [Compound 275] were, in that order, 0.045%, 0.00012% and 21 µg.
On to `CC(C)C(=Nc1ccc(F)c(Br)c1)OCc1cccc(Oc2ccc(Br)cc2)c1` [Compound 276], for which the “LC50, TBW, E (TBW-E)” value in experiment [1] was 0.1%. Further, the “LC50, CL” value in experiment [2] is 0.002%. The “LC50, HF” value in experiment [3] amounted to 39 µg.
On to `CC(C)C(=Nc1ccc(C2CCCCC2)cc1)OCc1cccc(Oc2ccc(F)cc2)c1` [Compound 280], for which the “LC50, TBW, E (TBW-E)” value in experiment [1] is listed as greater than 0.1%. The “LC50, CL” value in experiment [2] is 0.024%. Moreover, the “LC50, HF” value in experiment [3] is greater than 100 µg.
Turning to `CC(C)C(=Nc1ccc(C(F)(F)F)cc1)OCc1ccc(F)c(Oc2ccc(F)cc2)c1` [Compound 287], in experiment [1], the “LC50, TBW, E (TBW-E)” value is on record as greater than 0.1%. Also, the “LC50, CL” value in experiment [2] is reported as 0.0025%. Also, in experiment [3], the “LC50, HF” value was greater than 100 µg.
For `CC(C)C(=Nc1cccc(OC(F)(F)C(F)F)c1)OCc1cccc(Oc2ccc(F)cc2)c1` [Compound 288], the “LC50, TBW, E (TBW-E)” value in experiment [1] is reported as greater than 0.1%. The “LC50, CL” value in experiment [2] is on record as 0.0015%. In addition, the “LC50, HF” value in experiment [3] is greater than 100 µg.
The like results for `CCC(CC)C(=Nc1ccc(Cl)cc1)OCc1cccc(Oc2ccc(F)cc2)c1` [Compound 290] were, in that order, greater than 0.1%, 0.017% and greater than 100 µg.
The like results for `CCC(CC)C(=Nc1cccc(C(F)(F)F)c1)OCc1cccc(Oc2ccc(F)cc2)c1` [Compound 291] were, in that order, greater than 0.1%, 0.004% and greater than 100 µg.
Take `CC(Br)C(=Nc1ccc(F)c(Cl)c1)OCc1cccc(Oc2ccc(F)cc2)c1` (stereo not drawn) [Compound 305]: in experiment [1], the “LC50, TBW, E (TBW-E)” value is greater than 0.1%. For the same compound, the “LC50, CL” value in experiment [2] amounted to 0.048%. Also, the “LC50, HF” value in experiment [3] was greater than 100 µg.
For `CC(C)C(=Nc1ccc(C(C)(C)C)c(Cl)c1)OCc1cccc(Oc2ccc(F)cc2)c1` [Compound 308], in that order: greater than 0.1%, 0.009% and greater than 100 µg.
For `CC(C)(F)C(=Nc1ccc(F)c(Cl)c1)OCc1cccc(Oc2ccc(F)cc2)c1` [Compound 309], in that order: 0.07%, 0.00017% and greater than 100 µg.
Turning to `CC(C)C(=Nc1ccc(Cl)cc1Cl)OCc1cccc(Oc2ccccc2)c1` [Compound 311], the “LC50, TBW, E (TBW-E)” value in experiment [1] worked out at 0.1%. The “LC50, CL” value in experiment [2] worked out at 0.0017%. Further, the “LC50, HF” value in experiment [3] was 22 µg.
Consider `CC(C)C(=Nc1ccc(Cl)cc1Cl)OCc1cccc(Oc2ccc(F)cc2)c1` [Compound 312], for which, in experiment [1], the “LC50, TBW, E (TBW-E)” value is greater than 0.1%. Moreover, the “LC50, CL” value in experiment [2] came to 0.006%. The “LC50, HF” value in experiment [3] was greater than 100 µg.
As for `CC(C)C(=Nc1ccc2c(c1)OCO2)OCc1ccc(F)c(Oc2ccc(Cl)cc2)c1` [Compound 313], the “LC50, TBW, E (TBW-E)” value in experiment [1] came out at 0.013%. Also, the “LC50, CL” value in experiment [2] is listed as 0.00025%. For the same compound, the “LC50, HF” value in experiment [3] is greater than 100 µg.
The like results for `CCC(C)C(=Nc1ccc(C(C)C)cc1)OCc1cccc(Oc2ccccc2)c1` (stereo not drawn) [Compound 317] were, in that order, 0.03%, 0.0045% and greater than 100 µg.
For the compound `CC(C)(F)C(=Nc1ccc(F)c(F)c1)OCc1cccc(Oc2ccc(F)cc2)c1` [Compound 318], the “LC50, TBW, E (TBW-E)” value in experiment [1] is greater than 0.1%. Further, the “LC50, CL” value in experiment [2] is listed as 0.0007%. Moreover, the “LC50, HF” value in experiment [3] stood at 19 µg.
`CC(C)(F)C(=Nc1cccc(C(F)(F)F)c1)OCc1cccc(Oc2ccc(F)cc2)c1` [Compound 319]: the “LC50, TBW, E (TBW-E)” value in experiment [1] was greater than 0.1%. The “LC50, CL” value in experiment [2] amounted to 0.0007%. Besides, in experiment [3], the “LC50, HF” value was found to be 44 µg.
As for `CCC(=Nc1ccc(C(C)C)cc1)OCc1cccc(Oc2ccc(F)cc2)c1` [Compound 320], the “LC50, TBW, E (TBW-E)” value in experiment [1] was greater than 0.1%. Further, the “LC50, CL” value in experiment [2] is on record as 0.0075%. Moreover, the “LC50, HF” value in experiment [3] was greater than 100 µg.
Regarding `CCC(CC)C(=Nc1ccc(C(C)C)cc1)OCc1cccc(Oc2ccccc2)c1` [Compound 321], in experiment [1], the “LC50, TBW, E (TBW-E)” value is listed as greater than 0.1%. Also, the “LC50, CL” value in experiment [2] was 0.05%. Also, the “LC50, HF” value in experiment [3] is greater than 100 µg.
Take `CC(C)c1ccc(N=C(OCc2cccc(Oc3ccc(F)cc3)c2)C(C)(C)C)cc1` [Compound 322]: the “LC50, TBW, E (TBW-E)” value in experiment [1] was greater than 0.1%. Further, the “LC50, CL” value in experiment [2] amounted to 0.007%. Besides, in experiment [3], the “LC50, HF” value was greater than 100 µg.
The like results for `CC(C)C(=Nc1ccc(F)c(Cl)c1)OCc1cc(F)cc(Oc2ccc(F)cc2)c1` [Compound 327] were, in that order, greater than 0.1%, 0.005% and greater than 100 µg.
The like results for `CC(C)CC(=Nc1ccc(C(C)C)cc1)OCc1cccc(Oc2ccc(F)cc2)c1` [Compound 329] were, in that order, greater than 0.1%, 0.033% and 7 µg.
For `CC(C)C(=Nc1ccc(F)c(Cl)c1)OCc1cccc(Oc2ccc(I)cc2)c1` [Compound 447], in that order: greater than 0.1%, 0.0009% and 33 µg.
For `CC(C)C(=Nc1ccc(F)c(Cl)c1)OCc1ccc(Cl)c(Oc2ccc(F)cc2)c1` [Compound 448], the “LC50, TBW, E (TBW-E)” value in experiment [1] was 0.03%. In addition, the “LC50, CL” value in experiment [2] is on record as 0.003%. Moreover, the “LC50, HF” value in experiment [3] was 16 µg.
Consider `Fc1c(F)c(F)c(COC(=Nc2cccc(Cl)c2Cl)C(Cl)Cl)c(F)c1F` [Compound 454], for which the “LC50, TBW, E (TBW-E)” value in experiment [1] is on record as greater than 0.1%. The “LC50, CL” value in experiment [2] was 0.03%. For the same compound, in experiment [3], the “LC50, HF” value was greater than 100 µg.
For `Cc1c(COC(=Nc2ccc(Cl)cc2)C(C)C)cccc1-c1ccccc1` [Compound 455], in that order: greater than 0.1%, 0.0025% and greater than 100 µg.
For `Cc1c(COC(=Nc2ccc(F)cc2)C(C)C)cccc1-c1ccccc1` [Compound 458], in that order: greater than 0.05%, 0.007% and 100 µg.
For `CC(C)C(=Nc1ccc2c(c1)OCO2)OCc1c(F)c(F)c(F)c(F)c1F` [Compound 464], in that order: greater than 0.1%, 0.08% and greater than 100 µg.
On to `CC(C)C(=Nc1ccc2c(c1)OCO2)OCc1cccc(Oc2ccccc2)n1` [Compound 467], for which the “LC50, TBW, E (TBW-E)” value in experiment [1] was 0.04%. The “LC50, CL” value in experiment [2] came to 0.003%. In addition, in experiment [3], the “LC50, HF” value was 6 µg.
With `CC(C)C(=Nc1ccc2c(c1)OC(C)(C)O2)OCc1cccc(Oc2ccc(Cl)cc2)n1` [Compound 468], in experiment [1], the “LC50, TBW, E (TBW-E)” value is listed as greater than 0.1%. In experiment [2], the “LC50, CL” value is given as greater than 0.1%. Further, the “LC50, HF” value in experiment [3] was 50 µg.
Turning to `CC(C)C(=Nc1cccc(C(F)(F)F)c1)OCc1cccc(Oc2ccncc2)c1` [Compound 469], the “LC50, TBW, E (TBW-E)” value in experiment [1] was greater than 0.1%. The “LC50, CL” value in experiment [2] came to 0.02%. In addition, in experiment [3], the “LC50, HF” value was 40 µg.
As for `CC(C)C(=Nc1ccc(F)c(Cl)c1)OCc1cccc(Oc2ccncc2)c1` [Compound 470], in experiment [1], the “LC50, TBW, E (TBW-E)” value is reported as greater than 0.1%. Also, in experiment [2], the “LC50, CL” value was determined as 0.02%. Further, the “LC50, HF” value in experiment [3] was found to be 25 µg.
On to `CC(C)C(=Nc1ccc(F)c(Cl)c1)OCc1cccc(OCc2ccccc2)c1` [Compound 472], for which the “LC50, TBW, E (TBW-E)” value in experiment [1] is greater than 0.1%. Further, the “LC50, CL” value in experiment [2] turned out to be 0.0025%. The “LC50, HF” value in experiment [3] is greater than 100 µg.
For `CC(C)C(=Nc1ccc(F)c(Cl)c1)OCc1ccc(F)c(Br)c1` [Compound 473], in that order: greater than 0.1%, 0.025% and greater than 100 µg.
The like results for `CC(C)C(=Nc1ccc(F)c(Cl)c1)OCc1coc(Cc2ccccc2)c1` [Compound 474] were, in that order, greater than 0.1%, 0.0012% and 8 µg.
As for `CC(C)C(=Nc1cccc(C(F)(F)F)c1)OCc1ccc(OCc2ccccc2)cc1` [Compound 476], the “LC50, TBW, E (TBW-E)” value in experiment [1] is given as greater than 0.1%. Moreover, in experiment [2], the “LC50, CL” value came out at 0.015%. The “LC50, HF” value in experiment [3] was greater than 100 µg.

The values above are taken from US5070210A, “Novel ketenimines as intermediates for insecticides” (ICI Americas Inc., priority 1990, dated 1991).
